Results published in ChEMBL document CHEMBL1201862, “PubChem BioAssay data set” (2004).
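Compound exposure: 48 hours, 5 concentrations, 96-well plates. GI50 = concentration required for 50% inhibition of growth.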 Activity calls are given as the source filed them. No stated cut-off is given here; in the data, active = GI50 up to about 1.1 µM and inactive = higher.

Tests used:
Experiment in all cases: NCI anticancer screen, dose series, 48 h
UACC-257 = tested on: UACC-257
MDA-MB-231 = tested on: MDA-MB-231
A549 = tested on: A549
NCI-H226 = tested on: NCI-H226
SK-MEL-28 = tested on: SK-MEL-28
SF-295 = tested on: SF-295
786-0 = tested on: 786-0
SF-268 = tested on: SF-268
CCRF-CEM = tested on: CCRF-CEM
SW-620 = tested on: SW-620
PC-3 = tested on: PC-3
OVCAR-8 = tested on: OVCAR-8
HCT-15 = tested on: HCT-15
EKVX = tested on: EKVX
SF-539 = tested on: SF-539
HL-60 = tested on: HL-60
M14 = tested on: M14
SK-OV-3 = tested on: SK-OV-3
HOP-92 = tested on: HOP-92
A498 = tested on: A498

Measured: GI50

Cc1ncc2c(=O)c3c(oc2n1)c1ccccc1n3Cc1ccccc1
> 100 µM: HCT-15
inactive: UACC-257 > 100 µM | MDA-MB-231 > 100 µM | A549 > 100 µM | NCI-H226 > 100 µM | SK-MEL-28 > 100 µM | SF-295 > 100 µM | 786-0 84.9 µM | SF-268 > 100 µM | CCRF-CEM > 100 µM | SW-620 > 100 µM | PC-3 > 100 µM | OVCAR-8 > 100 µM | EKVX > 100 µM | SF-539 > 100 µM | HL-60 > 100 µM

CCc1cc(-c2nsc(=O)o2)c(S(=O)(=O)CC)s1
active: HL-60 0.951 µM
52.7 µM: HCT-15
inactive: A549 > 100 µM | NCI-H226 > 100 µM | SK-MEL-28 49.3 µM | SF-295 > 100 µM | 786-0 > 100 µM | M14 76 µM | SF-268 86.9 µM | CCRF-CEM 32.6 µM | SK-OV-3 > 100 µM | SW-620 61 µM | PC-3 33.4 µM | HOP-92 98.9 µM | OVCAR-8 88.1 µM | A498 > 100 µM | EKVX > 100 µM | SF-539 > 100 µM

CCCCc1ccc(-n2sc3ncccc3c2=O)cc1
5.52 µM: HCT-15
inactive: UACC-257 16.3 µM | MDA-MB-231 15.6 µM | A549 14 µM | NCI-H226 7.67 µM | SK-MEL-28 13.9 µM | SF-295 12.6 µM | 786-0 9.42 µM | M14 11.2 µM | SF-268 8.75 µM | CCRF-CEM 2.17 µM | SK-OV-3 26.9 µM | SW-620 13.9 µM | PC-3 11 µM | OVCAR-8 12.5 µM | EKVX 11.1 µM | SF-539 21 µM
active: HL-60 0.908 µM

N#C/C(=C/NC(=S)c1ccncc1)C(N)=O
inactive: UACC-257 > 100 µM | MDA-MB-231 > 100 µM | A549 > 100 µM | NCI-H226 > 100 µM | SK-MEL-28 > 100 µM | SF-295 > 100 µM | 786-0 > 100 µM | M14 > 100 µM | SF-268 > 100 µM | SK-OV-3 > 100 µM | SW-620 > 100 µM | HOP-92 > 100 µM | OVCAR-8 > 100 µM | A498 > 100 µM | EKVX > 100 µM | SF-539 > 100 µM | HL-60 > 100 µM
> 100 µM: HCT-15

Cn1c(=O)nc2n(-c3ccc(Cl)c(C(F)(F)F)c3)c3ccccc3nc-2c1=O
31.4 µM: HCT-15
inactive: UACC-257 17.1 µM | A549 25.8 µM | NCI-H226 > 53.7 µM | SK-MEL-28 65 µM | SF-295 44.2 µM | 786-0 57 µM | M14 26.1 µM | SF-268 35.6 µM | CCRF-CEM 30.8 µM | SK-OV-3 > 100 µM | SW-620 22.9 µM | HOP-92 40.8 µM | OVCAR-8 24.9 µM | A498 > 79.3 µM | EKVX 35.1 µM | SF-539 29 µM | HL-60 19.3 µM

COc1ccc2nc3cc(Cl)ccc3c(NCCCN(Cc3cc(OC)c(OC)c(OC)c3)Cc3cc(OC)c(OC)c(OC)c3)c2c1
inactive: UACC-257 13.9 µM | A549 14.6 µM | NCI-H226 14 µM | SK-MEL-28 16.4 µM | SF-295 3.33 µM | 786-0 12.1 µM | M14 1.78 µM | SF-268 13.5 µM | SK-OV-3 17.1 µM | SW-620 1.14 µM | PC-3 10.4 µM | HOP-92 10.1 µM | OVCAR-8 12.1 µM | EKVX 13.5 µM | SF-539 2.2 µM
active: MDA-MB-231 < 0.01 µM
> 10 µM: HCT-15

NS(=O)(=O)c1nnc(NC(=O)c2cccc([N+](=O)[O-])c2)s1
inactive: UACC-257 > 100 µM | MDA-MB-231 > 100 µM | A549 > 100 µM | NCI-H226 > 100 µM | SK-MEL-28 > 100 µM | SF-295 > 100 µM | 786-0 > 100 µM | M14 > 100 µM | SF-268 > 100 µM | SK-OV-3 > 100 µM | SW-620 > 100 µM | HOP-92 44.9 µM | OVCAR-8 > 100 µM | EKVX > 100 µM | SF-539 > 100 µM | HL-60 > 100 µM
> 100 µM: HCT-15

Nc1ccc(C(=O)NN2C(=O)C(Cl)C2c2cccc([N+](=O)[O-])c2)cc1 (stereo unspecified)
18.6 µM: HCT-15
inactive: UACC-257 23.1 µM | A549 46.3 µM | NCI-H226 20.2 µM | SK-MEL-28 21 µM | SF-295 20.5 µM | 786-0 18.7 µM | M14 23 µM | SF-268 17 µM | CCRF-CEM 9.79 µM | SK-OV-3 18.7 µM | SW-620 21.7 µM | HOP-92 21.4 µM | OVCAR-8 18.1 µM | A498 28.5 µM | EKVX 28.2 µM | SF-539 20.7 µM | HL-60 20.7 µM

COC(=O)C(C(=O)C(=O)Nc1cccc(OC)c1)c1cnc2ccccc2n1 (stereo unspecified)
inactive: UACC-257 > 100 µM | A549 66.8 µM | NCI-H226 > 100 µM | SK-MEL-28 > 100 µM | SF-295 > 100 µM | 786-0 > 100 µM | M14 > 100 µM | SF-268 > 100 µM | CCRF-CEM > 100 µM | SK-OV-3 > 100 µM | SW-620 > 100 µM | HOP-92 > 100 µM | OVCAR-8 > 100 µM | A498 > 100 µM | EKVX > 100 µM | SF-539 > 100 µM | HL-60 > 100 µM
> 100 µM: HCT-15

N#CC(N)(C(=O)CCC(=O)Nc1cccc(Cl)c1)c1ccc(Cl)cc1 (stereo unspecified)
> 100 µM: HCT-15
inactive: UACC-257 > 100 µM | A549 > 100 µM | NCI-H226 > 100 µM | SK-MEL-28 > 100 µM | SF-295 > 100 µM | 786-0 > 100 µM | M14 > 100 µM | SF-268 > 100 µM | CCRF-CEM > 100 µM | SK-OV-3 > 100 µM | SW-620 > 100 µM | HOP-92 > 100 µM | OVCAR-8 > 100 µM | A498 > 100 µM | EKVX > 100 µM | SF-539 > 100 µM | HL-60 > 100 µM

CC(=O)/C(=C/N1C(=O)CC(=O)NC1=S)C(=O)Nc1ccccc1C
42.5 µM: HCT-15
inactive: UACC-257 80.5 µM | MDA-MB-231 > 100 µM | A549 34.8 µM | NCI-H226 > 100 µM | SK-MEL-28 58.6 µM | SF-295 84.3 µM | 786-0 21.7 µM | M14 76 µM | SF-268 35.1 µM | SK-OV-3 > 100 µM | SW-620 32.8 µM | HOP-92 > 100 µM | OVCAR-8 > 100 µM | A498 28.1 µM | EKVX 38.5 µM | SF-539 32.3 µM | HL-60 49 µM

CC(C)(CO)CNc1nc(N)nc(Cl)c1N
inactive: UACC-257 42.9 µM | MDA-MB-231 > 100 µM | A549 > 100 µM | NCI-H226 67.3 µM | SK-MEL-28 > 100 µM | SF-295 > 100 µM | 786-0 > 100 µM | SF-268 > 100 µM | CCRF-CEM > 100 µM | SK-OV-3 > 100 µM | SW-620 > 100 µM | PC-3 > 100 µM | HOP-92 > 100 µM | OVCAR-8 > 100 µM | EKVX > 100 µM | SF-539 > 100 µM
> 100 µM: HCT-15
